Experiments:
Assay in all cases: Enzyme Inhibition Assay
Conditions in all cases: pH 8; 25 °C
[1] = molecular target: Inosine-5'-monophosphate dehydrogenase 1 (Homo sapiens, UniProt P20839)
Description: (§1) Enzyme inhibition assay using recombinant human IMPDH1 and IMPDH2 and C.parvum were expressed in guaB strains of escherichia coli.

[2] = molecular target: Inosine-5'-monophosphate dehydrogenase 2 (Homo sapiens, UniProt P12268)
Description: as §1

[3] = molecular target: T1, Inosine-5-monophosphate dehydrogenase (Cryptosporidium parvum, UniProt Q5CPK7)
T1 sequence (Q5CPK7 whole entry): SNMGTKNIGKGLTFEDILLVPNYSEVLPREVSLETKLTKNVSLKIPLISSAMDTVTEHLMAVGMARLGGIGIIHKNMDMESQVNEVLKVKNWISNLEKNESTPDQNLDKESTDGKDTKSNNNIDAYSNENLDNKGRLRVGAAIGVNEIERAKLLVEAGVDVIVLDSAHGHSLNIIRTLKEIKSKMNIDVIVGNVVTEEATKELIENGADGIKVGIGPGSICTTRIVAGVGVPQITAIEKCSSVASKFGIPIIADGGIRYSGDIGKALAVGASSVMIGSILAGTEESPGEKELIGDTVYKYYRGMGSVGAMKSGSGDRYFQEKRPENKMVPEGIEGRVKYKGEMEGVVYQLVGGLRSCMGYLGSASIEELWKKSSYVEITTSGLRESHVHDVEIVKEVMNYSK
Description: as §1

Chain of Inosine-5'-monophosphate dehydrogenase 1 (P20839 whole entry): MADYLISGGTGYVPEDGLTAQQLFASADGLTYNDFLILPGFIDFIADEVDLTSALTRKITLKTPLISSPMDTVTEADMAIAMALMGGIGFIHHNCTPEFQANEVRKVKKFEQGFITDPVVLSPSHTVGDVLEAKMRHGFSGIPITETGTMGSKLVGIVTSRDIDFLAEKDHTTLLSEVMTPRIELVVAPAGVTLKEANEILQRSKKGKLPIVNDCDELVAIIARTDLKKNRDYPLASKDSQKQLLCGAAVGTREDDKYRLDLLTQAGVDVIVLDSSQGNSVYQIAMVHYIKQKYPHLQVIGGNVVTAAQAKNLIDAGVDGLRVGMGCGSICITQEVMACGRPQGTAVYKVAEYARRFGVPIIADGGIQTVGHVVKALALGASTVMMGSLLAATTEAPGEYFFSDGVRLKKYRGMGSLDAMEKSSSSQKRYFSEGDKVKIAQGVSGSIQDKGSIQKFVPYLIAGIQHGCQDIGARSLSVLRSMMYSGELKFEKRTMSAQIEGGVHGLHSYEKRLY

IC50 [1] | IC50 [2] | IC50 [3] | SMILES
> 50 µM | > 50 µM | 3.3 µM | CC(Oc1ccccc1)C(=O)Nc1ccc(Cl)cc1 (configuration not stated)
> 50 µM | > 50 µM | 5.9 µM | O=c1[nH]c2ccc(Oc3ccc4[nH]c(=O)c(=O)[nH]c4c3)cc2[nH]c1=O [Tetrahydroquinoxalin analog, J]
> 25 µM | > 25 µM | 1.6 µM | COC(=O)c1c(C)c(=O)[nH]c2ccccc12 [methyl 3-methyl-2-oxo-1,2-dihydroquinoline-4-carboxylate, Compound E]

SMILES | IC50 [1] | IC50 [2] | IC50 [3]
O=C(N/C=N\c1cccnc1)C1COc2ccccc2O1 (configuration not stated) [N-[(Z)-N-(pyridin-3-yl)carboximidoyl]-2,3-dihydro-1,4-benzodioxine-2-carboxamide, K] | > 500 µM | > 500 µM | 19 µM

Reference: BindingDB's records for doi:10.1016/j.chembiol.2007.12.010 (Brandeis University, 2008)
